Source: patent publication US7855177B1, “Methods and kits for preventing hypoglycemia” (Cebix Inc., priority 2009, dated 2010)

Test system: type 1 diabetes patients with peripheral neuropathy
Assay: Phase II trial: adverse events
Conditions: for Total Adverse Events, Moderate / Total Adverse Events, Severe: ITT data set, number of treatment emergent AEs
[1] = Low-dose C-peptide, SOC Eye disorder
[2] = Low-dose C-peptide, SOC Gastro-intestinal Disorders
[3] = Low-dose C-peptide, SOC Immune system disorders
[4] = Low-dose C-peptide, SOC Infections and infestations
[5] = Low-dose C-peptide, SOC Injury poisoning, procedural complications
[6] = Low-dose C-peptide, SOC Investigations
[7] = Low-dose C-peptide, SOC Metabolism and nutritional disorders
[8] = Low-dose C-peptide, SOC Musculoskeletal and connective tissue disorder
[9] = Low-dose C-peptide, SOC Nervous system disorders
[10] = Low-dose C-peptide, SOC Psychiatric disorders
[11] = Low-dose C-peptide, SOC Skin and subcutaneous tissue disorders
[12] = Low-dose C-peptide, SOC Surgical and Medical

Protocol: The safety measurements comprised collection of AEs, spontaneously reported by the patient or recorded by the investigator at each clinical visit. Review of laboratory investigations, vital signs, and physical examinations was performed at the S/B visit, visit 2, and at end of study (visit 4). ECG was performed at the S/B visit and at visit 4.
An AE was classified as “unexpected event” (i.e., if not specifically listed in the Investigator's Brochure) in terms of nature, severity, or frequency. All AEs, including intercurrent illnesses and increased severity or frequency of sign/symptoms of a concomitant disease was reported and documented as described below. AEs were documented on an “Adverse Event/Serious Adverse Event” page of the CRF and in the patient's medical records. Any AE occurring at any time after the end of the study, considered to be caused by the study medication—and therefore a possible adverse drug reaction—was reported to the sponsor.
The period of observation for AEs extended from the time the patient started on trial medication until end of the study. AEs were divided into the categories “serious” and “non-serious”. This determined the procedure used to report/document the AE.
Regardless of the classification of an AE as serious or non-serious (see above), its severity was assessed as mild, moderate, or severe, according to medical criteria alone:
Descriptive statistics were used for safety variables. For lab parameters summary statistics were presented as change from baseline and between doses. The changes from baseline were calculated and compared with normal ranges. The safety analysis set included all patients who obtained at least one dose of the investigational drug. AEs were coded according to the MedDRA dictionary. The frequencies of AEs are tabulated by body system and included/preferred term.

`CC(C)C[C@H](NC(=O)[C@H](C)NC(=O)[C@H](CC(C)C)NC(=O)[C@@H]1CCCN1C(=O)[C@H](CCC(N)=O)NC(=O)[C@H](CC(C)C)NC(=O)[C@H](CO)NC(=O)CNC(=O)[C@H](C)NC(=O)CNC(=O)[C@@H]1CCCN1C(=O)CNC(=O)CNC(=O)CNC(=O)[C@H](CC(C)C)NC(=O)[C@H](CCC(=O)O)NC(=O)[C@@H](NC(=O)[C@H](CCC(N)=O)NC(=O)CNC(=O)[C@@H](NC(=O)[C@H](CCC(N)=O)NC(=O)[C@H](CC(C)C)NC(=O)[C@H](CC(=O)O)NC(=O)[C@H](CCC(=O)O)NC(=O)[C@H](C)NC(=O)[C@@H](N)CCC(=O)O)C(C)C)C(C)C)C(=O)N[C@@H](CCC(=O)O)C(=O)NCC(=O)N[C@@H](CO)C(=O)N[C@@H](CC(C)C)C(=O)N[C@@H](CCC(N)=O)C(=O)O` [C-peptide] was tested, and the “Dacryocanaliculitis, number of AEs” value [1] was 1, the “Vision decreased, number of AEs” value [1] was 1 and the “Celiac disease, number of AEs” value [2] was 1. The “Diarrhea, number of AEs” value [2] was 2, the “Flatulence, number of AEs” value [2] was 1 and the “Nausea, number of AEs” value [2] was 1. The “Reflux gastritis, number of AEs” value [2] was 2, the “Tooth ache, number of AEs” value [2] was 2 and the “Pyrexia, number of AEs” value (Low-dose C-peptide, SOC General disorders and administration site conditions) was 3. The “Allergic urticaria, number of AEs” value [3] was 1, the “Dermatitis allergic, number of AEs” value [3] was 1 and the “Rheumarthritis, number of AEs” value [3] was 1. For the same molecule, the “Season allergy, number of AEs” value [3] was 1, the “Borrelia infection, number of AEs” value [4] was 1 and the “Bronchitis, number of AEs” value [4] was 1. The “Candidiasis, number of AEs” value [4] was 2, the “Gastroenteritis, number of AEs” value [4] was 2 and the “Herpes simplex, number of AEs” value [4] was 1. For the same molecule, the “Herpeszoster, number of AEs” value [4] was 1, the “Influenza, number of AEs” value [4] was 1 and the “Nasopharyngitis, number of AEs” value [4] was 31. For the same molecule, the “Otitis, number of AEs” value [4] was 1, the “Pharyngitis, number of AEs” value [4] was 1 and the “Sinusitis, number of AEs” value [4] was 4. The “Skin infection, number of AEs” value [4] was 5, the “Tonsilitis, number of AEs” value [4] was 1 and the “Upper respiratory tract infection, number of AEs” value [4] was 3. For the same molecule, the “Urinary tract infection, number of AEs” value [4] was 3, the “Joint sprain ankle, number of AEs” value [5] was 1 and the “Rib fracture/injury, number of AEs” value [5] was 1. For the same molecule, the “Skin injury, number of AEs” value [5] was 2, the “Elevated serum, number of AEs” value [6] was 1 and the “Hepatic enzyme increase, number of AEs” value [6] was 2. For the same molecule, the “Hepatic enzyme increase, number of AEs possibly related to study drug” value [6] was 1, the “Hyperkalaemia, number of AEs” value [6] was 1 and the “Weight increased, number of AEs” value [6] was 1. For the same molecule, the “Hyperglycemia, number of AEs” value [7] was 1 (1), the “Hyperglycemia, number of AEs possibly related to study drug” value [7] was 1 (1) and the “Hyperlipidemia, number of AEs” value [7] was 1. The “Hypoglycemia, number of AEs” value [7] was 2, the “Hypoglycemia, number of AEs possibly related to study drug” value [7] was 1 and the “Hypoglycemic coma, number of AEs” value [7] was 2. The “Insulin sensitivity, number of AEs” value [7] was 1 (1), the “Insulin sensitivity, number of AEs possibly related to study drug” value [7] was 1 (1) and the “Arthralgia, number of AEs” value [8] was 3. For the same molecule, the “Arthritis, number of AEs” value [8] was 1, the “Arthropathy, number of AEs” value [8] was 2 and the “Epicondylitis, number of AEs” value [8] was 1. The “Exostosis, number of AEs” value [8] was 2, the “Muscle cramp, number of AEs” value [8] was 1 and the “Musculoskeletal chest, number of AEs” value [8] was 1. For the same molecule, the “Myalgia, number of AEs” value [8] was 3, the “Pain in extremity, number of AEs” value [8] was 3 and the “Pain in extremity, number of AEs possibly related to study drug” value [8] was 1. The “Pain in neck, number of AEs” value [8] was 1, the “Synovial disorder, number of AEs” value [8] was 1 and the “Tendinous contracture, number of AEs” value [8] was 1. For the same molecule, the “Carpal tunnel syndrome, number of AEs” value [9] was 1, the “Dizziness, number of AEs” value [9] was 2 and the “Headache, number of AEs” value [9] was 35. For the same molecule, the “Hyperthermeasthesia, number of AEs” value [9] was 2 (2), the “Hyperthermeasthesia, number of AEs possibly related to study drug” value [9] was 2 (2) and the “Hypoaesthesia, number of AEs” value [9] was 2. For the same molecule, the “Multiple sclerosis, number of AEs” value [9] was 1, the “Paraesthesia, number of AEs” value [9] was 2 and the “Paraesthesia, number of AEs possibly related to study drug” value [9] was 1. The “Depression, number of AEs” value [10] was 1, the “Panic disorder, number of AEs” value [10] was 1 and the “Stress disorder, number of AEs” value [10] was 1. For the same molecule, the “Asthma, number of AEs” value (Low-dose C-peptide, SOC Respiratory, thoracic, and mediastinal disorders) was 1, the “Dry skin, number of AEs” value [11] was 1 and the “Fibroma, number of AEs” value [11] was 1. The “Skin induration, number of AEs” value [11] was 2, the “Eye operation, number of AEs” value [12] was 1 and the “Limb operation, number of AEs” value [12] was 1. For the same molecule, the “Hypertension, number of AEs” value (Low-dose C-peptide, SOC Vascular disorders) was 1, the “Total treatment emergent AEs of any severity, number” value (Low-dose C-peptide, all SOCs) was 173 and the “Total treatment emergent AEs possibly related to study drug, number” value (Low-dose C-peptide, all SOCs) was 8. The local reactions (S.C. injection, 500-1,500 nmoL/24 h) was “No local reactions”, the SAEs (high-dose C-peptide (1,500 nmoL/24 h)) was “Two” and the “AEs possibly/probably related to the study drug” value (high-dose C-peptide group) was 5. The “patients without reported AEs” value (high-dose C-peptide group) was 6 patients, the “patients with AEs” value (high-dose C-peptide group, 44 out of 52 patients) was 85% and the “Total Adverse Events, Moderate” value (high-dose C-peptide group) was “Moderate = 43”. The “Total Adverse Events, Severe” value (high-dose C-peptide group) was “Severe = 9”, the “relationship of SAEs to the trial medication” value (high-dose C-peptide, investigators' assessment) was “unlikely/not related” and the “patients without reported AEs” value (low-dose C-peptide group) was 8 patients. The “patients with AEs” value (low-dose C-peptide group, 48 out of 56 patients) was 86%, the “Total Adverse Events, Moderate” value (low-dose C-peptide group) was “Moderate = 51” and the “Total Adverse Events, Severe” value (low-dose C-peptide group) was “Severe = 1”.
